Experimental data: article PMC6222496 (Molecules : A Journal of Synthetic Chemistry and Natural …, 2018)
Where two headings read alike, the source gives them in different places.

Key:
[1] = system: rats; conditions: cited from earlier work
[2] = system: rats; conditions: 0.1 mg/kg; cited from earlier work
[3] = system: rats; conditions: cited from earlier work; for pro-depressive effects: 2-ethoxymethyl ether Sal B 0.3 mg/kg, β-tetrahydropyran Sal B 2 mg/kg
[4] = target: T1, hKOR (Homo sapiens, UniProt P41145); experiment: cell-based; assay type: cell-based
T1 construct: host or cells: U2OS (PathHunter U2OS-hKOR-βarrestin2-DX)
T1 sequence (P41145 whole entry): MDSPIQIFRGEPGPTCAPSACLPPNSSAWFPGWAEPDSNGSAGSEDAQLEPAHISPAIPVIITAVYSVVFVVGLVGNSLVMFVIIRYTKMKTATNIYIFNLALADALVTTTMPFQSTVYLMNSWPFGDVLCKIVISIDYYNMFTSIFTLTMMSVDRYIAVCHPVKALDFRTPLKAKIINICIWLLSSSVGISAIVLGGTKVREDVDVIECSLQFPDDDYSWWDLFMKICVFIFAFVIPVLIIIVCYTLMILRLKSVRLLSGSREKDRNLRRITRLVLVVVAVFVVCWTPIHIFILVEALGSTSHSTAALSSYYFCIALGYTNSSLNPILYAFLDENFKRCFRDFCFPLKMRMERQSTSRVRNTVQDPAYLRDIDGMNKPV
T1 sequence (P32121 whole entry partner): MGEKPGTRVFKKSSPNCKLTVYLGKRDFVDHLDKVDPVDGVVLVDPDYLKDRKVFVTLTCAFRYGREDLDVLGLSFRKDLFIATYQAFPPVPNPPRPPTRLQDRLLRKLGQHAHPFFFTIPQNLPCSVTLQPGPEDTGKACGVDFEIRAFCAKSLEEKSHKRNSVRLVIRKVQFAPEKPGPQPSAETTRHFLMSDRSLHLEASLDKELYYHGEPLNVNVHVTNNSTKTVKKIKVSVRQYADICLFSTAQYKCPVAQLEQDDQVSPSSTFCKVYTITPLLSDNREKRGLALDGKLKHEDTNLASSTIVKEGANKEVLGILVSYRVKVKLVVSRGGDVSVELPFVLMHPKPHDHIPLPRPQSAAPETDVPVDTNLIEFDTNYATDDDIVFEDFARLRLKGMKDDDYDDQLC

[5] = system: B6.SJL mice; conditions: mouse, in vivo; for EC50 (antinociception, % MPE): sc
[6] = system: B6.SJL mice; conditions: cited from earlier work; for duration of action (antinociceptive effects): 1 mg/kg
[7] = system: mice; parameters: method as in PMID 28263712; conditions: 3 mg/kg; cited from earlier work
[8] = target: T2, KOPr (Homo sapiens, UniProt P41145); experiment: cell-based
T2 construct: host or cells: CHO (HitHunter cell line)
T2 sequence (P41145 whole entry): as the sequence (P41145 whole entry) above

[9] = system: Sprague-Dawley rats; experiment: Cocaine-induced hyperactivity; assay type: in vivo, rat; conditions: 0.3 mg/kg i.p., 45 min prior to cocaine 20 mg/kg
[10] = system: Sprague Dawley rats; conditions: rat, in vivo
[11] = system: mice; parameters: method as in PMID 28263712; conditions: chronic escalation drinking; cited from earlier work
[12] = system: rats
[13] = system: rats; conditions: rat, in vivo
[14] = system: Sprague Dawley rats; experiment: Sucrose self-administration / sucrose intake; assay type: in vivo, rat; conditions: 0.3 and 1.0 mg/kg i.p., 45 min pretreatment
Method: For sucrose reinforcement tests, rats were maintained at approximately 85% of their initial feeding weights with free access to water throughout the experiment. Rats were trained to orally self-administer a 10% sucrose solution in eight modular test chambers (Med Associates) as previously described. Rats were trained to self-administer sucrose orally using an auto-shaping procedure (45 min daily for ten days). Once stable responding was achieved, the animals were maintained on a Fixed Ratio 1 (FR1) schedule of reinforcement where depression of the active lever (left lever) led to the delivery of sucrose solution. Following oral acquisition, the response requirements were increased to an FR5 schedule of reinforcement. Daily 1 h sessions were conducted until there was less than 20% variation in responding for three consecutive days. The animals on stable FR5 reinforcements were subjected to the sucrose reinforcement test. On the test day, rats received either vehicle (75% DMSO, 1 mL/kg, i.p.) or Mesyl Sal B (0.3, 1.0 mg/kg, i.p.) and 45 min later, sucrose reinforced lever-press responding was recorded for 60 min.

[15] = system: Sprague-Dawley rats; experiment: Expression of behavioral sensitization to cocaine; assay type: in vivo, rat; conditions: 0.3 mg/kg i.p. on day 10, 45 min before cocaine 20 mg/kg
[16] = system: drug naïve rats; conditions: cited from earlier work
[17] = target: human KOPr; conditions: cited from earlier work
[18] = system: rats; remark: listed apart in the source
[19] = system: rats; experiment: Forced swim test; assay type: in vivo, rat; conditions: 0.3 mg/kg i.p., 45 min before test
Method: The FST apparatus consisted of a cylinder (44 cm high and 20 cm in diameter) filled to 35 cm with water maintained at 25 ± 1 °C. On the habituation day, the rats were placed in the swim chamber for 15 min and the following day were administered either with Mesyl Sal B (0.3 mg/kg, i.p.) or the vehicle (75% DMSO, 1 mL/kg, i.p.) and placed in the swim chamber45 min later. The forced swimming behavior was recorded by a video camera and the climbing, swimming, or immobility behaviors were recorded for 5 min. Data were analyzed using the SMART software (version 3.0; PanLab, Barcelona, Spain).

[20] = system: mice
[21] = system: B6.SJL mice; assay type: in vivo, mouse
[22] = system: mice; conditions: 1–3.2 mg/kg; cited from earlier work
[23] = system: Sprague-Dawley rats; conditions: rat, in vivo; cited from earlier work
[24] = system: rats; conditions: 0.3 mg/kg; cited from earlier work
[25] = system: human KOPr; conditions: cited from earlier work; remark: listed apart in the source
[26] = system: Sprague Dawley rats; conditions: rat, in vivo; cited from earlier work
[27] = system: rats; conditions: 0.16 mg/kg; cited from earlier work
[28] = system: P-glycoprotein efflux pump; conditions: cited from earlier work
[29] = system: Sprague-Dawley rats; conditions: rat, in vivo; cited from earlier work; remark: listed apart in the source
[30] = target: T2, KOPr; parameters: method as in PMID 25320048; conditions: human embryonic kidney cells; cited from earlier work
[31] = system: mice; conditions: mouse, in vivo; cited from earlier work
[32] = system: Rhesus macaques; conditions: 0.01–0.1 mg/kg i.v.; cited from earlier work
[33] = system: mice; conditions: Sal A 3–10 mg/kg, for 30 min; cited from earlier work
[34] = system: rhesus monkeys; conditions: rhesus monkey, in vivo; cited from earlier work
[35] = system: rat KOPr; conditions: cited from earlier work
[36] = system: B6.SJL mice; conditions: cited from earlier work
[37] = 2 mg/kg i.p., 5 min before formaldehyde

Which results are given for `CCOCO[C@H]1C[C@@H](C(=O)OC)[C@]2(C)CC[C@H]3C(=O)O[C@H](c4ccoc4)C[C@]3(C)[C@H]2C1=O` [2-ethoxymethyl ether Sal B]?
cocaine-prime induced cocaine seeking ([1]; rats): attenuate; aversive effects in the CPA paradigm [2]: did not show aversive effects; pro-depressive effects [3]: did not

Which results are given for `COC(=O)[C@@H]1C[C@H](OS(C)(=O)=O)C(=O)[C@H]2[C@@]1(C)CC[C@H]1C(=O)O[C@H](c3ccoc3)C[C@]21C` [Mesyl Sal B, (2S,4aR,6aR,7R,9S,10aS,10bR)-9-(methanesulfonyloxy)-2-(3-furanyl)dodecahydro-6a, 10b-dimethyl-4,10-dioxy-2H-naptho [2,1-c]pyran-7-carboxylic acid methyl ester]?
Bias Factor [4]: 0.61; EC50 [4]: 236 nM; β-Arrestin Recruitment (PathHunter) Efficacy [4]: 90.2%; Emax [5]: 38%; EC50 (antinociception, % MPE) [5]: 3.0 mg/kg; duration of action (antinociceptive effects) ([6]; mouse, in vivo, ip): 60 min; time at which effects are seen (onset of action) ([6]; mouse, in vivo): 30 to 60 min; cocaine-prime induced reinstatement of drug seeking ([1]; rat, in vivo): attenuate; sucrose or saccharin intake [7]: no effect; EC50 [8]: 0.12 nM; cocaine-induced hyperactivity [9]: suppressed; recognition index (RI) value [10]: No change; alcohol intake [11]: attenuates; time spent in the open arm ([12]; rat, in vivo): no effect; time spent in the drug-paired chamber [13]: did not significantly alter; sucrose intake (sucrose-reinforced responding) [14]: no effect; expression of cocaine behavioral sensitization [15]: suppresses; locomotor activity, spontaneous open field ([16]; rat, in vivo): no significant effect; Ki [17]: 2.3 ± 0.1 nM; taste aversion (saccharin consumption on test day) ([18]; rat, in vivo): did not induce taste aversion; swimming time [19]: significant decrease; time spent immobile [19]: significant increase; motor impairment (latency to fall) ([20]; mouse, in vivo): no motor impairment; pain score ([21]; mouse, in vivo): small but significant decrease; phase 1 nociceptive pain (0–15 min) ([21]; mouse, in vivo): minimally effective; phase 2 inflammatory pain (20–60 min) ([21]; mouse, in vivo): reducing phase 2 pain at the 30 min time point; formaldehyde-induced paw edema ([21]; mouse, in vivo, ip, 2 mg/kg): no significant reduction

With `COC(=O)[C@@H]1C[C@H](OC(C)=O)C(=O)[C@H]2[C@@]1(C)CC[C@H]1C(=O)O[C@H](c3ccoc3)C[C@]21C` [Sal A, Salvinorin A] as the molecule, how does the “Bias Factor” value [4] read?
Its value is 0.35.

And the Emax [5]?
Its Emax is 87%.

And the “EC50 (antinociception, % MPE)” value [5]?
The value was 2.1 mg/kg.

What about the “place conditioning at higher doses” value [22] of the same molecule?
Its value is “aversion”.

What about the cocaine-induced behavioral sensitization [23] of the same molecule?
The cocaine-induced behavioral sensitization was “attenuated”.

What about the “duration of action (antinociceptive effects)” value ([6]; mice, i.p.) of the same molecule?
The value was 15 min.

And the “aversion in CTA experiments” value [24]?
Its value is “no aversion”.

And the “cocaine-prime induced cocaine seeking” value ([1]; rats)?
The value was “attenuate”.

What about the “cocaine-prime induced reinstatement of drug seeking” value ([1]; rats) of the same molecule?
The value was “attenuate”.

And the signaling bias ([25]; human receptor)?
The signaling bias was “significantly biased towards the β-arrestin2 pathway”.

And the sucrose self-administration [26]?
The sucrose self-administration was “no effects”.

What about the “time spent in the open arm” value ([12]; 1 mg/kg) of the same molecule?
The value was “significantly decreased”.

And the “spontaneous locomotion, open field” value ([16]; 0.3 mg/kg, rats)?
The value was “did not alter”.

What about the “taste aversion (saccharin consumption on test day)” value ([18]; 0.3 mg/kg) of the same molecule?
Its value is “no effect”.

And the anxiety-related effects [27]?
The anxiety-related effects was “anxiolytic effects”.

What about the “P-glycoprotein efflux pump substrate” value [28] of the same molecule?
Its value is “substrate”.

And the “locomotor activity produced by acute cocaine administration” value [29]?
Its value is “increased”.

What about the signaling bias [30] of the same molecule?
The signaling bias was “balanced agonist”.

And the “climbing behavior (motor coordination)” value [31]?
The value was “rapidly disrupt climbing behavior”.

What about the sedation [32] of the same molecule?
Its sedation is “sedative effect”.

And the depressive effects ([3]; 0.25–2 mg/kg, rats)?
The depressive effects was “induces depressive effects”.

And the “anti-depressive and anxiolytic effects” value ([3]; 10–1000 μg/kg, rats)?
The value was “potent anti-depressive and anxiolytic effects”.

And the “motor impairment (latency to fall)” value ([20]; 2 mg/kg i.p., at 2 and 15 min)?
Its value is “significant motor impairment”.

What about the “phase 1 nociceptive pain (0–15 min)” value [21, 37] of the same molecule?
The value was “significant attenuation”.

What about the “phase 2 inflammatory pain (20–60 min)” value [21, 37] of the same molecule?
The value was “significant attenuation”.

And the formaldehyde-induced paw edema ([21]; 60 min after formaldehyde, Sal A 2 mg/kg i.p.)?
The formaldehyde-induced paw edema was “significantly reduced”.

And the “motor coordination in rotarod performance test” value [33]?
The value was “induced motor incoordination”.

Which results are given for `CCC12CCN(CC3(O)CC3)C(Cc3ccc(O)cc31)C2(C)C` (stereo not drawn) [bremazocine]?
cocaine self-administration [34]: decreased; food reinforcements [34]: decreased

With `CC[C@]12CCN(CC3CC3)[C@H](C(=O)c3ccc(O)cc31)[C@@H]2C` [ethylketazocine] as the molecule, how does the cocaine self-administration [34] read?
Its cocaine self-administration is “decreased”.

And the food reinforcements [34]?
The food reinforcements was “decreased”.

With `CN(C(=O)/C=C/c1ccoc1)[C@@H]1CC[C@@]2(O)[C@H]3Cc4ccc(O)c5c4[C@@]2(CCN3CC2CC2)[C@H]1O5` [nalfurafine] as the molecule, how does the signaling bias [25] read?
Its signaling bias is “extreme G-protein biased signaling”.

And the signaling bias [35]?
The signaling bias was “bias to a much lesser extent”.

With `Oc1ccc2c3c1O[C@H]1c4[nH]c5c(c4C[C@@]4(O)[C@@H](C2)N(CC2CC2)CC[C@]314)C[C@@]1(O)[C@H]2Cc3ccc(O)c4c3[C@@]1(CCN2CC1CC1)[C@H]5O4` [nor-BNI, Nor-binaltorphimine] as the molecule, how does the “effect on U50488-induced decrease in recognition index” value [10] read?
Its value is “prevented”.

With `COC(=O)[C@@H]1C[C@H](OC2CCCCO2)C(=O)[C@H]2[C@@]1(C)CC[C@H]1C(=O)O[C@H](c3ccoc3)C[C@]21C` (stereo partly drawn) [β-tetrahydropyran Sal B] as the molecule, how does the “potency and efficacy, cumulative dose-response” value ([6]; compared with Sal A) read?
The value was “more potent and more efficacious than Sal A”.

What about the “cocaine-prime induced cocaine seeking” value ([1]; rats) of the same molecule?
The value was “attenuate”.

What about the antinociceptive effects ([36]; intraplantar 2% formaldehyde) of the same molecule?
The antinociceptive effects was “potent antinociceptive effects”.

And the pro-depressive effects [3]?
Its pro-depressive effects is “did not”.

With RB-64 as the molecule, how does the “motor coordination in rotarod performance test” value [33] read?
The value was “did not cause any motor deficits”.

Which formaldehyde-induced paw edema [36] does the source give for spirobutyrolactone Sal B here?
Its formaldehyde-induced paw edema is “significantly reduced”.

And the “nociceptive phase of pain” value [36]?
Its value is “did not reduce”.

What about the “antinociceptive effects, inflammatory phase” value ([36]; intraplantar 2% formaldehyde) of the same molecule?
Its value is “potent antinociceptive effects”.
